For assay [1], the target named is T1, purified PKC (Homo sapiens, UniProt Q02156).
T1 construct: purchased Calbiochem
T1 sequence (Q02156 1-737): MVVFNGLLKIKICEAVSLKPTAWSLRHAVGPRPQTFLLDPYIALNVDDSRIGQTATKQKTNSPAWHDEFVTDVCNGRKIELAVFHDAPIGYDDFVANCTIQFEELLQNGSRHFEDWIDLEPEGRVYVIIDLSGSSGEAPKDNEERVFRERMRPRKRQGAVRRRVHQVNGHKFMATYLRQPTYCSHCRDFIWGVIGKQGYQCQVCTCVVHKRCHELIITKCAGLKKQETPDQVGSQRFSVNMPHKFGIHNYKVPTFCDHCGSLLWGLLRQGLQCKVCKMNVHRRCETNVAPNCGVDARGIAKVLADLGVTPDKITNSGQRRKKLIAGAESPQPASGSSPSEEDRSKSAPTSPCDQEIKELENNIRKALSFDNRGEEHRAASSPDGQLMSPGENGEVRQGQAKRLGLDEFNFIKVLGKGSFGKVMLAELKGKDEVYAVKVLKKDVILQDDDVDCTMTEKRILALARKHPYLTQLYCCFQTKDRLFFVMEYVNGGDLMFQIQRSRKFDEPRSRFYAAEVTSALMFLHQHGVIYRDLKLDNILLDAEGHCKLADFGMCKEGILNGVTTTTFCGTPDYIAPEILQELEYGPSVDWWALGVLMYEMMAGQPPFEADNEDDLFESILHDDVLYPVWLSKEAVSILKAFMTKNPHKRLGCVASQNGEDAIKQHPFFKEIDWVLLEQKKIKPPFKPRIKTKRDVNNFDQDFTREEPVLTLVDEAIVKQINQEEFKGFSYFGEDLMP
As to the kind of experiment: PKC isozyme specificity: purified PKC preincubated with compound, activity measured radiometrically. The format is biochemical. Particulars: for concentration needed to activate PKC, relative to BR-101 (DCP-LA): compared with BR-101 (DCP-LA); for activation of purified PKC: used as methyl esters. The protocol:
(§1) Protein Kinase C Assay. Rat hippocampal cells were cultured and scraped in 0.2 ml homogenization buffer (20 mM Tris-HCl, pH 7.4, 50 mM NaF, 1 μg/ml leupeptin, and 0.1 mM PMSF) and homogenized by sonication in a Marsonix micro-probe sonicator (5 sec, 10 W). To measure PKC, 10 μl of cell homogenate or purified PKC isozyme (purchased from Calbiochem) was incubated for 15 min at 37° C. in the presence of 10 μM histones, 4.89 mM CaCl2, 1.2 μg/μl phosphatidyl-L-serine, 0.18 μg/μl 1,2-dioctanoyl-sn-glycerol, 10 mM MgCl2, 20 mM HEPES (pH 7.4), 0.8 mM EDTA, 4 mM EGTA, 4% glycerol, 8 μg/ml aprotinin, 8 μg/ml leupeptin, and 2 mM benzamidine. 0.5 μCi [γ-32P]ATP was added and 32P-phosphoprotein formation was measured by adsorption onto phosphocellulose as described previously. Nelson and Alkon, J. Neurochemistry. 1995; 65: 2350-57. For measurements of activation by BR-101 (DCP-LA) and similar compounds, PKC activity was measured in the absence of diacylglycerol and phosphatidylserine, as described by Kanno et al., and PKC δ, ε, η, and were measured in the absence of added EGTA and CaCl2, as described by Kanno et al., J. Lipid Res. 2006; 47: 1146-50. Low concentrations of Ca2+ are used because high Ca2+ interacts with the PKC phosphatidylserine binding site and prevents activation. For measurements of bryostatin activation, 1,2-diacylglycerol was omitted unless otherwise stated.
To determine their PKC isozyme specificity, the new compounds were preincubated with purified PKC for five minutes and the PKC activity was measured radiometrically.

The subject of assay [2] is PKC. The following applies: read-out: EC50 (affinity for PKC); cited from earlier work.
In assay [3] the test system is PKC. As to the kind of experiment: PKC activity in cultured rat hippocampal H19-7/IGF-IR cells. Type of assay: cell-based. The following applies: 8 h; data not shown. The protocol: Cell Culture. Rat hippocampal H19-7/IGF-IR cells (ATCC, Manassas, Va.) were plated onto poly-L-lysine coated plates and grown at 35° C. in DMEM/10% FCS for several days until about 50% coverage was obtained. The cells were then induced to differentiate into a neuronal phenotype by replacing the medium with 5 ml N2 medium containing 10 ng/ml basic fibroblast growth factor at 39° C. and grown in T-75 flasks at 37° C. Human SH-SY5Y neuroblastoma cells (ATCC) were cultured in 45% F 12K/45% MEM/10% FCS. Mouse N2A neuroblastoma cells were cultured in DMEM/10% FCS without glutamine. Rat hippocampal neurons from 18-day-old embryonic
as §1
PKC activators that bind to the diacylglycerol binding site, including bryostatin, gnidimacrin, and phorbol esters, produce a transient activation of PKC activity, followed by a prolonged downregulation. Nelson et al., Trends in Biochem. Sci. 2009; 34: 136-45. This was confirmed in cultured rat hippocampal cells. Incubation of rat 1119-7/IGF-IR cells with (0.04 nM and 0.2 nM) bryostatin produced a 2-fold activation that lasted 30 min, followed by a 20% downregulation that returned to baseline by 24 h (data not shown). […] This sustained activation was only observed in primary neurons.

Assay [4] concerns Aß. The following applies: 1 μM, 8 h, cultured COS cells; cited from earlier work.
Assay [5] concerns PKC-ε. As to the kind of experiment: PKC-ε level in skin fibroblasts treated with oligomeric Aß1-42 (western blot). The format is cell-based, human. As to the method: Immunoblot Analysis: Protein lysates (20 μg of protein each) were boiled in 2× Laemmli buffer for 10 min and separated using a 4-20% gradient Tris-Glycine gels. Separated proteins were transferred to nitrocellulose membrane and the membrane was blocked in BSA at room temperature (RT) for 15 min and incubated with 1:2000 dilution anti-PKC-ε rabbit polyclonal antibody (Santa Cruz Biotechnology, Santa Cruz, Calif.; Cat No: sc-214), and 1:5000 dilution anti-ß-tubulin, class III rabbit monoclonal antibody (Millipore Corporation, Billerica Mass., Cat No: 04-1049) for 1 hr at RT. After the incubation, the membrane fractions were washed 3× with standard western blot washing buffer and further incubated with alkaline phosphatase conjugated secondary antibody (Jackson Immunoresearch Laboratories, USA) at 1:10000 dilution for 45 min. The membrane fractions were finally washed 3× with standard western blot washing buffer and developed using the 1-step NBT-BCIP substrate (Thermo Scientific, Rockford, Ill.). Signal intensities of the images were recorded in the ImageQuant RT-ECL (GE Life Sciences, Piscataway, N.J.) and densitometric quantification was performed using the IMAL software (Blanchette Rockefeller Neurosciences Institute, Morgantown, W. Va.). Intensities quantified in this way, for PKC-ε were normalized against ß-tubulin for each lane.
Preparation of Soluble Oligomeric Aß: Oligomeric Aß was prepared following the method described by Noguchi et al., (2009). Aß generated by this method was reported to be highly neurotoxic, 10-15 nm spherical Aß assemblies termed as amylospheroids (ASPDs). […]
Treatment of skin fibroblasts with oligomeric Aß1-42: Skin fibroblasts both from AD and AC cases were cultured for 7 days to 100% confluence. […] The resulting band intensities for PKC-ε were quantified using ImageQuant RT-ECL (GE Life Sciences, USA) and densitometric analysis was performed using the IMAL software (Blanchette Rockefeller Neurosciences Institute, Morgantown, W. Va.).
A general note: A western blot detects proteins with antibodies after separation by electrophoresis.

Take `CCCCCC1OC1C/C=C\CCCCCCCC(=O)OC` (stereo in doubt) [BR-117, vernolic acid methyl ester]: in assay [1], the “effect on PKC” value was “little or no effect”.
With `CCC1CC1CC1CC1CC1CC1CC1CC1CC1CC1CCCC(=O)OC` (stereo not drawn) [BR-114], in assay [1], the “concentration needed to activate PKC, relative to BR-101 (DCP-LA)” value was “approx. 100 times lower” and the “activation of purified PKC” value is on record as “activated purified PKC to a similar extent”.
`CCCCCC1CC1CC1CC1CC1CC1CC1CC1CCCC(=O)OC` (stereo not drawn) [BR-115, methyl 4-(2-((2-((2-((pentylcyclopropyl)methyl)cyclopropyl)methyl)cyclopropyl)methyl)cyclopropyl)butanoate methyl ester]: in assay [1], the “concentration needed to activate PKC, relative to BR-101 (DCP-LA)” value is “approx. 100 times lower” and the “activation of purified PKC” value is “activated purified PKC to a similar extent”.
As to `CCCCCCCCCCCCCC(=O)O[C@@H]1[C@@H](C)[C@@]2(O)[C@@H](C=C(CO)C[C@]3(O)C(=O)C(C)=C[C@@H]23)[C@@H]2C(C)(C)[C@]12OC(C)=O` [PMA, phorbol 12-myristate 13-acetate], the EC50 in assay [2] was […]. Moreover, in assay [3], the “downregulation of PKC activity” value is “strongly downregulated”.
For `CCCC(=O)O[C@@H]1[C@@H](C)[C@@]2(O)[C@@H](C=C(CO)C[C@]3(O)C(=O)C(C)=C[C@@H]23)[C@@H]2C(C)(C)[C@]12OC(=O)CCC` [PdBu, Phorbol-12,13-dibutyrate], in assay [4], the “change in Aß” value is recorded as “increase in Aß”.
For “Linoleic alcohol cyclopropanated [BR-105]”, the “effect on PKC” value in assay [1] is “little or no effect”.
As to “Linolenyl alcohol cyclpropanated [BR-104]”, in assay [1], the “effect on PKC” value was “little or no effect”.
“Soluble Aß oligomer: soluble >100 kDa oligomers (amylospheroids) prepared from synthetic Aß1-42 by the method of Noguchi et al.”: the “PKC-ε in age-matched control (AC) skin fibroblasts” value in assay [5] (500 nM, 24 hrs, five AC cases) is recorded as “decreases”. The “PKC-ε in AD skin fibroblasts” value in assay [5] (500 nM, 24 hrs, five AD cases) is given as “did not show decrease in expression”. In addition, the “AC-AD ratio of normalized PKC-ε in treated cells” value in assay [5] (untreated cells 1.4) is recorded as approximately 1.
Regarding “Vernolic acid cyclopropanated methyl ester [BR-109]”, in assay [1], the “concentrations at which PKC was inhibited” value is “above 1 μM”.
For epoxystearic acid [BR-116], the “effect on PKC” value in assay [1] is listed as “little or no effect”.

What is called EC50 is the concentration needed to bring the measured effect to its halfway point.
